Here are results for 27 compounds from patent publication US9260408B2, “Dihydroquinoline-2-one derivatives” (Hoffmann-La Roche Inc., priority 2011, dated 2016).

The target in one assay is T1, human CYP11B2 (Homo sapiens, UniProt P19099).
T1 construct: expressed in transfected cells
T1 sequence (P19099 25-503): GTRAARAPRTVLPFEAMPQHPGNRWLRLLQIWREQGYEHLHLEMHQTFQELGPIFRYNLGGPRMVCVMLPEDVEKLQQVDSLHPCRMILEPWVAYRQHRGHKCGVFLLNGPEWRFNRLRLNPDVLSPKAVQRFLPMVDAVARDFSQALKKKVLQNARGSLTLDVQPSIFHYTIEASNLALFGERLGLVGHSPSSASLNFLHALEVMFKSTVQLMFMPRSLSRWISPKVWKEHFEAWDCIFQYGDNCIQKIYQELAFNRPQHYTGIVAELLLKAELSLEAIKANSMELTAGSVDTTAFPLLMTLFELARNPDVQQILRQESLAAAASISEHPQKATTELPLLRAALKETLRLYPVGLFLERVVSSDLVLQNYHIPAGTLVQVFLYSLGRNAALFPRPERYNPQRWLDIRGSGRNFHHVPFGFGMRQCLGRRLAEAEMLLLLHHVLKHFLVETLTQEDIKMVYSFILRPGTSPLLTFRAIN
As to the kind of experiment: G-402 cellular enzyme assay, human CYP11B2 (aldosterone release, HTRF). The assay is classed as cell-based. As to conditions: G-402 cells expressing human CYP11B2; 1 μM Deoxycorticosterone. In a few lines:
(§1)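 G-402 cells stably expressing human CYP11B2 or CYP11B1, in DMEM/F12 with 2.5% charcoal-treated FCS, were incubated 16 h with compound plus 1 μM deoxycorticosterone (CYP11B2) or 1 μM deoxycortisol (CYP11B1). Aldosterone or cortisol in the supernatant measured by HTRF; EC50 from a 4-parameter MMF fit.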

The target in another assay is T2, human CYP11B1 (Homo sapiens, UniProt P15538).
T2 construct: expressed in transfected cells
T2 sequence (P15538 25-503): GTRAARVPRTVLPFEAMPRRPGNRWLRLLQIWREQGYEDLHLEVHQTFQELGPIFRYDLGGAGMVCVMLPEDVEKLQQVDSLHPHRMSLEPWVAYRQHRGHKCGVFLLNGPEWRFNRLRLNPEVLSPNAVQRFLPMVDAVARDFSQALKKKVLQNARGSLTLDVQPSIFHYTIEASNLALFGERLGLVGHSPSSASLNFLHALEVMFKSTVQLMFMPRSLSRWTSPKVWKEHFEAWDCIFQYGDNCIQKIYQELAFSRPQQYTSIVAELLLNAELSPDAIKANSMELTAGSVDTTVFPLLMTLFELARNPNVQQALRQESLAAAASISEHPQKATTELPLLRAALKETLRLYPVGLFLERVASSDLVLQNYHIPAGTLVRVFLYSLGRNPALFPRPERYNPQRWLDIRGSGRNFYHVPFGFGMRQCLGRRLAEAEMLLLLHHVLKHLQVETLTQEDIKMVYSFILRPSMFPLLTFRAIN
Kind of assay: G-402 cellular enzyme assay, human CYP11B1 (cortisol release, HTRF). The assay is classed as cell-based. The following applies: G-402 cells expressing human CYP11B1; 1 μM Deoxycortisol. In a few lines: as §1

Structures are written as SMILES. Structures can show the parent of a compound that is named as a salt.

As for `CN1C(=O)CCc2cc(-c3cncc(NCc4ccccc4)n3)ccc21` [Example 25], the EC50 was determined as 5 nM on human CYP11B2 and 110 nM at human CYP11B1.

In the case of `CN1C(=O)CCc2cc(-c3cncc(NCCO)n3)c(F)cc21` [Example 26], the figures for the EC50 on human CYP11B2 and at human CYP11B1 were 18 nM and 570 nM, respectively.

Consider `CN1C(=O)CCc2cc(-c3cncc(NCc4ccccc4)n3)c(F)cc21` [Example 27], for which the EC50 at human CYP11B2 was determined as 7 nM; on human CYP11B1, 270 nM.

As to `CN1C(=O)CCc2cc(-c3cncc(N4CC5(CN(C(=O)OC(C)(C)C)C5)C4)n3)ccc21` [Example 28, 6-[6-(1-methyl-2-oxo-1,2,3,4-tetrahydro-quinolin-6-yl)-pyrazin-2-yl]-2,6-diaza-spiro[3.3]heptane-2-carboxylic acid tert-butyl ester], the EC50 turned out to be 121 nM on human CYP11B2 and 780 nM at human CYP11B1.

With `CN1C(=O)CCc2cc(-c3cncc(N4CC5(CN(C(=O)OC(C)(C)C)C5)C4)c3)ccc21` [Example 29], the EC50 on human CYP11B2 turned out to be 260 nM; at human CYP11B1 it was 5560 nM.

As to `CC(C)[C@H](CO)Nc1cncc(-c2ccc3c(c2)CCC(=O)N3C)c1` [Example 30, 6-[5-((R)-1-Hydroxymethyl-2-methyl-propylamino)-pyridin-3-yl]-1-methyl-3,4-dihydro-1H-quinolin-2-one], the EC50 is 170 nM at human CYP11B2 and 10200 nM on human CYP11B1.

In the case of `CC(C)[C@H](CO)Nc1cncc(-c2ccc3c(c2)CCC(=O)N3C)n1` [Example 31, 6-[6-((R)-1-Hydroxymethyl-2-methyl-propylamino)-pyrazin-2-yl]-1-methyl-3,4-dihydro-1H-quinolin-2-one], the EC50 at human CYP11B2 is 172 nM; on human CYP11B1 it was greater than 3000 nM.

As for `CCS(=O)(=O)NCc1cncc(-c2ccc3c(n2)CCC(=O)N3C)c1` [Example 32, Ethanesulfonic acid [5-(5-methyl-6-oxo-5,6,7,8-tetrahydro-[1,5]naphthyridin-2-yl)-pyridin-3-ylmethyl]-amide], the EC50 on human CYP11B2 is 1290 nM; on human CYP11B1, greater than 10000 nM.

As for `O=C1CCc2nc(-c3cccnc3)ccc2N1` [Example 33, 6-Pyridin-3-yl-3,4-dihydro-1H-[1,5]naphthyridin-2-one], the EC50 on human CYP11B2 is 1260 nM; on human CYP11B1 it was greater than 10000 nM.

Turning to `CN1C(=O)CCc2nc(-c3cccnc3)ccc21` [Example 34, 1-Methyl-6-pyridin-3-yl-3,4-dihydro-1H-[1,5]naphthyridin-2-one], the EC50 at human CYP11B2 came out at 416 nM; on human CYP11B1, 29200 nM.

For `CN1C(=O)CCc2cc(-c3cccnc3)ncc21` [Example 35, 1-Methyl-6-pyridin-3-yl-3,4-dihydro-1H-[1,7]naphthyridin-2-one], the EC50 is 325 nM at human CYP11B2 and greater than 10000 nM on human CYP11B1.

Regarding `CN1C(=O)CCc2cc(-c3cncc(CN)c3)ccc21` [Example 36, 6-(5-Aminomethyl-pyridin-3-yl)-1-methyl-3,4-dihydro-1H-quinolin-2-one], the EC50 was found to be 71 nM on human CYP11B2 and 2570 nM on human CYP11B1.

As for `CCC(=O)NCc1cncc(-c2ccc3c(c2)CCC(=O)N3C)c1` [Example 37, N-[5-(1-Methyl-2-oxo-1,2,3,4-tetrahydro-quinolin-6-yl)-pyridin-3-ylmethyl]-propionamide], the EC50 on human CYP11B2 was found to be 44 nM; on human CYP11B1 it was 1590 nM.

As for `CC(C)S(=O)(=O)NCc1cncc(-c2ccc3c(c2)CCC(=O)N3C)c1` [Example 38, Propane-2-sulfonic acid [5-(1-methyl-2-oxo-1,2,3,4-tetrahydro-quinolin-6-yl)-pyridin-3-ylmethyl]-amide], the figures for the EC50 at human CYP11B2 and on human CYP11B1 were 81 nM and 1500 nM, respectively.

For `CN1C(=O)CCc2cc(-c3cncc(OCCNC(=O)OC(C)(C)C)c3)ccc21` [Example 39, {2-[5-(1-Methyl-2-oxo-1,2,3,4-tetrahydro-quinolin-6-yl)-pyridin-3-yloxy]-ethyl}-carbamic acid tert-butyl ester], the EC50 amounted to 10 nM at human CYP11B2 and 120 nM at human CYP11B1.

Turning to `COc1cc(C(=O)NCc2cncc(-c3ccc4c(c3)CCC(=O)N4C)c2)on1` [Example 40, 3-Methoxy-isoxazole-5-carboxylic acid [5-(1-methyl-2-oxo-1,2,3,4-tetrahydro-quinolin-6-yl)-pyridin-3-ylmethyl]-amide], the EC50 on human CYP11B2 was determined as 15 nM; at human CYP11B1 it was 750 nM.

`CN1C(=O)CCc2cc(-c3cncc(CNC(=O)C4CC4)c3)ccc21` [Example 41, Cyclopropanecarboxylic acid [5-(1-methyl-2-oxo-1,2,3,4-tetrahydro-quinolin-6-yl)-pyridin-3-ylmethyl]-amide]: the EC50 on human CYP11B2 is 67 nM; at human CYP11B1 it was 5560 nM.

`CN1C(=O)CCc2cc(-c3cncc(OCCN)c3)ccc21` [Example 42, 6-[5-(2-amino-ethoxy)-pyridin-3-yl]-1-methyl-3,4-dihydro-1H-quinolin-2-one hydrochloride]: the EC50 on human CYP11B2 came to 28 nM; on human CYP11B1, 160 nM.

Turning to `CCC(=O)NCCOc1cncc(-c2ccc3c(c2)CCC(=O)N3C)c1` [Example 43, N-{2-[5-(1-Methyl-2-oxo-1,2,3,4-tetrahydro-quinolin-6-yl)-pyridin-3-yloxy]-ethyl}-propionamide], the EC50 is 40 nM at human CYP11B2 and 1560 nM on human CYP11B1.

Turning to `CN1C(=O)CCc2cc(-c3cncc(CN4CCCCS4(=O)=O)c3)ccc21` [Example 44, 6-[5-(1,1-Dioxo-1λ^6-[1,2]thiazinan-2-ylmethyl)-pyridin-3-yl]-1-methyl-3,4-dihydro-1H-quinolin-2-one], the concentration giving a half-maximal response (EC50) on human CYP11B2 came out at 5 nM; at human CYP11B1, 568 nM.

As for `CN1C(=O)CCc2cc(-c3cncc(OC[C@@H]4CCN4C(=O)OC(C)(C)C)c3)ccc21` [Example 45, (S)-2-[5-(1-Methyl-2-oxo-1,2,3,4-tetrahydro-quinolin-6-yl)-pyridin-3-yloxymethyl]-azetidine-1-carboxylic acid tert-butyl ester], the EC50 at human CYP11B2 was determined as 87 nM; on human CYP11B1 it was 863 nM.

Regarding `CN1C(=O)CCc2cc(-c3cncc(O[C@@H]4CCN(C(=O)OC(C)(C)C)C4)c3)c(F)cc21` [Example 46, (R)-3-[5-(7-Fluoro-1-methyl-2-oxo-1,2,3,4-tetrahydro-quinolin-6-yl)-pyridin-3-yloxy]-pyrrolidine-1-carboxylic acid tert-butyl ester], the results for the EC50 on human CYP11B2 and on human CYP11B1 were 5 nM and 298 nM, respectively.

Take `CN1C(=O)CCc2cc(-c3cncc(OC4CN(C(=O)OC(C)(C)C)C4)c3)ccc21` [Example 47, 3-[5-(1-Methyl-2-oxo-1,2,3,4-tetrahydro-quinolin-6-yl)-pyridin-3-yloxy]-azetidine-1-carboxylic acid tert-butyl ester]: the EC50 at human CYP11B2 was determined as 3 nM; at human CYP11B1 it was 61 nM.

Turning to `CN1C(=O)CCc2cc(-c3cncc(O[C@H]4CCN(C(=O)OC(C)(C)C)C4)c3)ccc21` [Example 48, (S)-3-[5-(1-Methyl-2-oxo-1,2,3,4-tetrahydro-quinolin-6-yl)-pyridin-3-yloxy]-pyrrolidine-1-carboxylic acid tert-butyl ester], the EC50 is 49 nM at human CYP11B2 and 392 nM on human CYP11B1.

As for `CN1C(=O)CCc2cc(-c3cncc(O[C@H]4CCCN(C(=O)OC(C)(C)C)C4)c3)ccc21` [Example 49, (S)-3-[5-(1-Methyl-2-oxo-1,2,3,4-tetrahydro-quinolin-6-yl)-pyridin-3-yloxy]-piperidine-1-carboxylic acid tert-butyl ester], the EC50 at human CYP11B2 is 271 nM; on human CYP11B1 it was 1000 nM.

Consider `CN1C(=O)CCc2cc(-c3cncc(OC4CCN(C(=O)OC(C)(C)C)CC4)c3)ccc21` [Example 50, 4-[5-(1-Methyl-2-oxo-1,2,3,4-tetrahydro-quinolin-6-yl)-pyridin-3-yloxy]-piperidine-1-carboxylic acid tert-butyl ester], for which the EC50 at human CYP11B2 is 3 nM; on human CYP11B1, 24 nM.

With `CN1C(=O)CCc2cc(-c3cncc(OC[C@@H]4CCCN4C(=O)OC(C)(C)C)c3)ccc21` [Example 51, (S)-2-[5-(1-Methyl-2-oxo-1,2,3,4-tetrahydro-quinolin-6-yl)-pyridin-3-yloxymethyl]-pyrrolidine-1-carboxylic acid tert-butyl ester], the EC50 came out at 32 nM at human CYP11B2 and 1870 nM on human CYP11B1.
